Source: paper PMC7216583 (Parasites & Vectors, 2020)
Where two headings read alike, the source gives them in different places.

How the values were obtained:
[1] = system: ATR; parameters: method as in vendor brief description; details: ref vendor brief description; cited from earlier work
[2] = system: Toxoplasma gondii RH-2F tachyzoites; test: microbe, parasite or virus in culture; details: 72 h, read-out: Parasite inhibition (%) mean, preliminary screen of compound library, mean
[3] = biological target: epidermal growth factor receptor (EGFR); parameters: method as in vendor brief description; details: ref vendor brief description; read-out: IC50 EGFR; cited from earlier work
[4] = biological target: 5-HT3A; parameters: method as in vendor brief description; details: ref vendor brief description; cited from earlier work
[5] = biological target: histamine 1 (H1) receptor; parameters: method as in vendor brief description; details: ref vendor brief description; cited from earlier work
[6] = system: TRPA1 channel; parameters: method as in vendor brief description; details: ref vendor brief description, cited from earlier work
[7] = Side effects / survival of uninfected healthy mice; type: in vivo, BALB/c mice; details: healthy mice treated with compound, data not shown
Method: All mice were purchased from the Laboratory Animal Center, Wenzhou Medical University, Zhejiang, China. They were bred and handled in strict accordance with the Good Animal Practice requirements of the Animal Ethics Procedures and Guidelines of China. In a preliminary experiment aiming to assess the side effects of compounds, female BALB/c mice (6–8 weeks old, ~20 g) were orally administered with each compound at 50 mg/kg for 5 days and were monitored for 30 days. There was no obvious clinical toxicity after treatment with all compounds during this time period.

[8] = system: T. gondii RH strain; test: Murine model of acute toxoplasmosis: tissue parasite burden by B1 gene qPCR; type: in vivo, BALB/c mice; details: 7 dpi, 50 mg/kg oral for 5 days, n = 5, compared with vehicle control
Method: Meanwhile, the parasite burden in the brain, liver and spleen of infected mice was measured at 7 dpi as described previously. Briefly, whole organs were mixed in lysis buffer (50 mM Tris pH 8.0, 50 mM EDTA, 1% SDS, 50 mg/ml of proteinase K) and incubated overnight at 56 °C. Total genomic DNA from 25 mg of tissue in 100 μl of lysis buffer was then extracted using DNeasy Blood and Tissue Kit (Qiagen, Shanghai, China) following the manufacturer’s instructions. […]. Amplification was performed in a final volume of 20 μl using a ChamQ Universal SYBR qPCR Master Mix (Cat# Q711-02; Vazyme, Nanjing, China). Each reaction contained 10 μl of 2× ChamQ SYBR qPCR Master Mix, 1 μl of template DNA, 8.2 μl of distilled water and 0.4 μM each primer. The following amplification conditions were applied: 30 s at 95 °C; 40 cycles of 95 °C for 10 s, 60 °C for 30 s; and one cycle of 95 °C for 15 s, 60 °C for 1 min and 95 °C for 15 s. The number of parasites was calculated from the standard curve prepared in parallel.

[9] = system: JAK1; parameters: method as in vendor brief description; details: ref vendor brief description; cited from earlier work
[10] = biological target: endothelin receptor-A; parameters: method as in vendor brief description; details: ref vendor brief description; cited from earlier work
[11] = system: CXCR4; parameters: method as in vendor brief description; details: ref vendor brief description; cited from earlier work

SMILES: CS(=O)(=O)c1ccc(-c2cnc(N)c(C(=O)Nc3ccccc3)n2)cc1 [VE-821]
- IC50 [1]: 26 nM
- Ki [1]: 13 nM
- inhibition of growth at 5 µM [2]: -7.9%

SMILES: C#Cc1cccc(Nc2ncnc3cc4c(cc23)OCCOCCOCCO4)c1 [Icotinib]
- IC50 [3]: 5 nM
- inhibition of growth at 5 µM [2]: 13.6%

SMILES: CN1CCN(c2nc3ccccc3nc2Cl)CC1 [VUF 10166]
- Ki [4]: 0.04 nM
- inhibition of growth at 5 µM [2]: 0.4%

SMILES: O=C(O)CCCN1CCC(O[C@@H](c2ccc(Cl)cc2)c2ccccn2)CC1.O=S(=O)(O)c1ccccc1 [Bepotastine Besilate]
- pIC50 histamine 1 (H1) receptor [5]: Bepotastine is a non-sedating, selective antagonist of histamine 1 (H1) receptor with pIC50 of 5.7.
- inhibition of growth at 5 µM [2]: 50.1%

SMILES: CC(C)c1ccc(NC(=O)Cn2cnc3c2c(=O)n(C)c(=O)n3C)cc1 [HC-030031]
- IC50 ([6]; AITC-evoked, read-out: IC50 AITC-evoked calcium influx): 6200 nM
- IC50 ([6]; formalin-evoked, read-out: IC50 formalin-evoked calcium influx): 5300 nM
- inhibition of growth at 5 µM [2]: 1.6%

SMILES: CCc1nc(N)nc(N)c1-c1ccc(Cl)cc1 [pyrimethamine, Pyrimethamine]
- survival of healthy (uninfected) mice [7]: survived
- parasite burden in brain, liver and spleen [8]: lowest parasite burden in tissue

SMILES: N#CC[C@@H](C1CCCC1)n1cc(-c2ncnc3[nH]ccc23)cn1 [S-Ruxolitinib]
- inhibition of growth at 5 µM [2]: 10.7%

SMILES: COc1ccccc1Oc1c(NS(=O)(=O)c2ccc(C(C)(C)C)cc2)nc(-c2ncccn2)nc1OCCO [Bosentan Hydrate]
- inhibition of growth at 5 µM [2]: 5.3%

SMILES: c1ccc(NCc2ccc(CNc3ccccn3)cc2)nc1 [WZ 811]
- EC50 [11]: 0.3 nM
- inhibition of growth at 5 µM [2]: -5.7%
